From patent publication US8293731B2, “HIV integrase inhibitors” (Merck Sharp + Dohme Corp., priority 2005, dated 2012)

Each molecule was assayed on HIV (assay: Assay for inhibition of HIV replication (spread assay): acute HIV infection of T-lymphoid cells). Conditions: Human immunodeficiency virus 1, 'less than about'.
Assay type: cell-based
Experimental: Assays for the inhibition of acute HIV infection of T-lymphoid cells were conducted in accordance with Vacca, J. P. et al., Proc. Natl. Acad. Set USA 1994, 91: 4096. […] For example, the compounds of Examples 1 to 64 were tested in this assay and found to have IC95 values of less than about 10 micromolar.
O=C1c2c(c3n(c(=O)c2O)CCCCN(CCN2CCCC2)C3=O)CCN1Cc1ccc(F)c(Cl)c1 [Example 17, 11-(3-Chloro-4-fluorobenzyl)-9-hydroxy-2-(2-pyrrolidinyl-1-ylethyl)-3,4,5,6,12,13-hexahydro-2H[1,4]diazocino[2,1-a]-2,6-naphthyridine-1,8,10(11H)-trione] showed an IC95 of under 10 µM.
Work on CN1CC(O)CCn2c(c3c(c(O)c2=O)C(=O)N(Cc2ccc(F)c(Cl)c2)CC3)C1=O (single isomer, unassigned) [Example 23, 11-(3-Chloro-4-fluorobenzyl)-4,9-dihydroxy-2-methyl-3,4,5,6,12,13-hexahydro-2H[1,4]diazocino[2,1-a]-2,6-naphthyridine-1,8,10(11H)-trione] yielded an IC95 of under 10 µM.
In the case of CN1CCn2c(c3c(c(O)c2=O)C(=O)N(Cc2ccc(F)c(Cl)c2)CC3)C1=O [Example 6, 9-(3-Chloro-4-fluorobenzyl)-7-hydroxy-2-methyl-3,4,10,11-tetrahydro-2H-pyrazino[2,1-a]-2,6-naphthyridine-1,6,8(9H)-trione], the IC95 is reported as under 10 µM.
CN1CC(O)C(C)(C)Cn2c(c3c(c(O)c2=O)C(=O)N(Cc2ccc(F)c(Cl)c2)CC3)C1=O (racemic) [Example 38, (4R/S)-11-(3-Chloro-4-fluorobenzyl)-4,9-dihydroxy-2,5,5-trimethyl-3,4,5,6,12,13-hexahydro-2H[1,4]diazocino[2,1-a]-2,6-naphthyridine-1,8,10(11H)-trione] showed an IC95 of under 10 µM.
In the case of COCCN1CCCCn2c(c3c(c(O)c2=O)C(=O)N(Cc2ccc(F)c(Cl)c2)CC3)C1=O [Example 22, 11-(3-Chloro-4-fluorobenzyl)-9-hydroxy-2-[2-(methoxy)ethyl]-3,4,5,6,12,13-hexahydro-2H[1,4]diazocino[2,1-a]-2,6-naphthyridine-1,8,10(11H)-trione], the IC95 is reported as under 10 µM.
Work on C[C@H]1C[C@H](O)CN(C)C(=O)c2c3c(c(O)c(=O)n21)C(=O)N(Cc1ccc(F)c(Cl)c1)CC3 [Example 44, (4S,6S)-11-(3-Chloro-4-fluorobenzyl)-4,9-dihydroxy-2,6-dimethyl-3,4,5,6,12,13-hexahydro-2H[1,4]diazocino[2,1-a]-2,6-naphthyridine-1,8,10(11H)-trione] yielded an IC95 of under 10 µM.
With CN1C(=O)C(C)(C)n2c1c1c(c(O)c2=O)C(=O)N(Cc2ccc(F)c(Cl)c2)CC1 [Example 9, 8-(3-Chloro-4-fluorobenzyl)-6-hydroxy-1,3,3-trimethyl-1,8,9,10-tetrahydroimidazo[2,1a]-2,6-naphthyridine-2,5,7(3H)-trione] the IC95 was under 10 µM.
With CC1CCCN(CCN2CCCCC2)C(=O)c2c3c(c(O)c(=O)n21)C(=O)N(Cc1ccc(F)c(Cl)c1)CC3 (stereo not drawn) [Example 33, 11-(3-Chloro-4-fluorobenzyl)-9-hydroxy-2-(2-piperidinyl-1-ylethyl)-6-methyl-3,4,5,6,12,13-hexahydro-2H[1,4]diazocino[2,1-a]-2,6-naphthyridine-1,8,10(11H)-trione] the IC95 was under 10 µM.
O=C1OCCCCn2c1c1c(c(O)c2=O)C(=O)N(Cc2ccc(F)c(Cl)c2)CC1 [Example 61, 11-(3-Chloro-4-fluorobenzyl)-9-hydroxy-3,4,5,6,12,13-hexahydro-[1,4]oxazocino[3,4-a]-2,6-naphthyridine-1,8,10(11H)-trione] gave an IC95 of under 10 µM.
O=C1NCCn2c1c1c(c(O)c2=O)C(=O)N(Cc2ccc(F)c(Cl)c2)CC1 [Example 5, 9-(3-Chloro-4-fluorobenzyl)-7-hydroxy-3,4,10,11-tetrahydro-2H-pyrazino[2,1-a]-2,6-naphthyridine-1,6,8(9H)-trione] showed an IC95 of under 10 µM.
O=C1c2c(c3n(c(=O)c2O)CCCCN(CCO)C3=O)CCN1Cc1ccc(F)c(Cl)c1 [Example 11, 11-(3-Chloro-4-fluorobenzyl)-9-hydroxy-2-(2-hydroxyethyl)-3,4,5,6,12,13-hexahydro-2H[1,4]diazocino[2,1-a]-2,6-naphthyridine-1,8,10(11H)-trione] was tested, and the IC95 was under 10 µM.
In the case of CS(=O)(=O)NCCN1CCCCn2c(c3c(c(O)c2=O)C(=O)N(Cc2ccc(F)c(Cl)c2)CC3)C1=O [Example 21, 11-(3-Chloro-4-fluorobenzyl)-9-hydroxy-2-[2-(methamesulfonylamino)ethyl]-3,4,5,6,12,13-hexahydro-2H[1,4]diazocino[2,1-a]-2,6-naphthyridine-1,8,10(11H)-trione], the IC95 is reported as under 10 µM.
Molecule CN1CC(O)C(C)(C)Cn2c(c3c(c(O)c2=O)C(=O)N(Cc2ccc(F)cc2)CC3)C1=O (racemic) [Example 42, (4R/S)-11-(4-Fluorobenzyl)-4,9-dihydroxy-2,5,5-trimethyl-3,4,5,6,12,13-hexahydro-2H[1,4]diazocino[2,1-a]-2,6-naphthyridine-1,8,10(11H)-trione] has an IC95 of under 10 µM.
CC1(CCO)C(=O)N(CCO)c2c3c(c(O)c(=O)n21)C(=O)N(Cc1ccc(F)c(Cl)c1)CC3 (stereo not drawn) [Example 60, 8-(3-Chloro-4-fluorobenzyl)-6-hydroxy-1,3-bis(2-hydroxyethyl)-3-methyl-1,8,9,10-tetrahydroimidazo[2,1-a]-2,6-naphthyridine-2,5,7(3H)-trione] showed an IC95 of under 10 µM.
In the case of CC(=O)OCCCN1C(=O)C(C)(C)n2c1c1c(c(O)c2=O)C(=O)N(Cc2ccc(F)c(Cl)c2)CC1 [Example 58, 8-(3-Chloro-4-fluorobenzyl)-6-hydroxy-1-(3-acetyloxypropyl)-3,3-dimethyl-1,8,9,10-tetrahydroimidazo[2,1-a]-2,6-naphthyridine-2,5,7(3H)-trione], the IC95 is reported as under 10 µM.
CC1(C)C(=O)N(CCCO)c2c3c(c(O)c(=O)n21)C(=O)N(Cc1ccc(F)c(Cl)c1)CC3 [Example 55, 8-(3-Chloro-4-fluorobenzyl)-6-hydroxy-1-(3-hydroxypropyl)-3,3-dimethyl-1,8,9,10-tetrahydroimidazo[2,1-a]-2,6-naphthyridine-2,5,7(3H)-trione] was tested, and the IC95 was under 10 µM.
CC(=O)OCC1Cn2c(c3c(c(O)c2=O)C(=O)N(Cc2ccc(F)c(Cl)c2)CC3)C(=O)O1 (stereo not drawn) [Example 63, 9-(3-Chloro-4-fluorobenzyl)-7-hydroxy-3-(acetyloxymethyl)-3,4,10,11-tetrahydro[1,4]oxazino[3,4-a]-2,6-naphthyridine-1,6,8(9H)-trione] was tested, and the IC95 was under 10 µM.
O=C1OCCn2c1c1c(c(O)c2=O)C(=O)N(Cc2ccc(F)c(Cl)c2)CC1 [Example 7, 9-(3-Chloro-4-fluorobenzyl)-7-hydroxy-3,4,10,11-tetrahydro[1,4]oxazino[3,4-a]-2,6-naphthyridine-1,6,8(9H)-trione] was tested, and the IC95 was under 10 µM.
CN1CC(O)C(C)(C)Cn2c(c3c(c(O)c2=O)C(=O)N(Cc2ccc(F)c(Cl)c2)CC3)C1=O (racemic) [Example 40, (4R/S)-11-(3-Chloro-4-fluorobenzyl)-4,9-dihydroxy-2,5,5-trimethyl-3,4,5,6,12,13-hexahydro-2H[1,4]diazocino[2,1-a]-2,6-naphthyridine-1,8,10(11H)-trione] was tested, and the IC95 was under 10 µM.
For CC1CCn2c(c3c(c(O)c2=O)C(=O)N(Cc2ccc(F)c(Cl)c2)CC3)C(=O)N(C)C1 (stereo not drawn) [Example 46, 11-(3-Chloro-4-fluorobenzyl)-9-hydroxy-2,4-dimethyl-3,4,5,6,12,13-hexahydro-2H[1,4]diazocino[2,1-a]-2,6-naphthyridine-1,8,10(11H)-trione], the IC95 was under 10 µM.
In the case of CC(=O)NCCN1CCCCn2c(c3c(c(O)c2=O)C(=O)N(Cc2ccc(F)c(Cl)c2)CC3)C1=O [Example 20, 11-(3-Chloro-4-fluorobenzyl)-9-hydroxy-2-[2-(acetylamino)ethyl]-3,4,5,6,12,13-hexahydro-2H[1,4]diazocino[2,1-a]-2,6-naphthyridine-1,8,10(11H)-trione], the IC95 is reported as under 10 µM.
